Assay results reported in PMC13360702, “An Agonist/Antagonist Photo‐Switchable Vitamin D Mimetic Enables Bidirectional Optical Control of VDR” (Angewandte Chemie (International Ed. in English), 2026).
Where two headings read alike, the source gives them in different places.

Molecular target: T1, VDR (Homo sapiens, UniProt P11473)
T1 construct: -CMV-VDR-LBD coding for the hinge region and; expressed in transfected cells; host or cells: HEK293T
T1 sequence (P11473 127-423 limits assumed): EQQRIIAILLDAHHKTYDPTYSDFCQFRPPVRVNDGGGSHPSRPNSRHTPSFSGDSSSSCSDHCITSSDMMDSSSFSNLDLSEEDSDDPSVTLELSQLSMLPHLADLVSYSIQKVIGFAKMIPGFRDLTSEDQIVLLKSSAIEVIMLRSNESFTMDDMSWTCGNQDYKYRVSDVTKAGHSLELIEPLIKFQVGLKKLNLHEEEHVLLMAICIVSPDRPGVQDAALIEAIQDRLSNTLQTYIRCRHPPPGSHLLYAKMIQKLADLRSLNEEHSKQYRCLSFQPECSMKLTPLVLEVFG
Assay: Gal4‐VDR hybrid reporter gene assay, agonist mode
Assay type: cell-based
Conditions: HEK293T cells, mean±S.E.M., n≥3
Procedure: FIGURE 2 Development and characterization of the light‐activated vitamin D mimetic photo‐vitD (10). (a) Structure activity relationship of photo‐switchable VDR agonists 4–10. Compounds were tested in a cellular Gal4‐VDR hybrid reporter gene assay. Relative activation is normalized to the effect of 2 (1 µM) set as 100% activation. The (Z)‐states of the compounds were maintained with a Cell‐Disco [24] (370 nm). […] Data in agonist (EC50) and antagonist mode (IC50; vs. 0.3 µM 2) are shown for (E)‐ and (Z)‐10. The corresponding dose‐response curves are shown in (d). (b) Predicted binding mode of (E)‐7 (green) in the VDR ligand binding site (pdb ID 4g1d). […] (c) Predicted binding mode of (Z)‐10 (yellow) in the VDR ligand binding site. The altered regiochemistry conveys strong preference for the light‐induced (Z)‐configuration and the extended naphthoic acid motif enables a strong ionic contact to R302. (d) Dose‐response curves of (E)‐ (dark) and (Z)‐10 (370 nm) in the Gal4‐VDR reporter gene assay in agonist (top) and antagonist mode (bottom, with 0.3 µM calcitriol (2)). (Z)‐10 activated VDR; (E)‐10 and (Z)‐10 antagonized VDR activation by 0.3 µM calcitriol (2). (Z)‐10 was maintained with a Cell‐Disco [24] (370 nm). Data are the mean±S.E.M. relative VDR act. vs. 0.3 µM calcitriol (2), n≥3. (e) Activity profile of 10 (1 µM) on nuclear receptors showing exclusive VDR activation by the light‐activated state. 10 was tested in a panel of uniform Gal4‐NR hybrid reporter gene assays. (Z)‐10 was maintained with a Cell‐Disco [24] (370 nm). Data are the mean±SD, n = 3. (f) Representative UV/Vis spectra of 10 as (E)‐ (dark) and (Z)‐states (PSS 365 nm), and after switching back to (E) with 465 nm. (g) (E)/(Z)‐ratios of 10 in the dark‐adapted state, after illumination at 365 nm for 5 min and after switching back from mostly‐(Z) with 465 nm for 5 min. (h) 10 could be rapidly and reversibly switched between the (E)‐ and (Z)‐states over multiple cycles by alternating irradiation at 365 and 465 nm. Absorbance was measured at 351 nm with a 25 µM solution in DMSO, one cycle is 30 sec. […] 10 was pre‐illuminated at 365 nm for 30 min and then kept in the dark. (E)/(Z) ratios were measured by NMR. (j) Binding mode prediction of (E)‐ and (Z)‐10 to the VDR‐antagonist complex 2zxm (residues numbered according to [21]). (Z)‐10 (yellow) forms an agonist‐like binding mode with several polar interactions at both ends of the pocket. (E)‐10 (cyan) is also anchored at the distal end of the pocket by an H‐bond network with R302 and the D176 backbone but due to the (E)‐configuration, the β‐naphthoic acid residue protrudes deeper and the pentan‐3‐ol motif rotates away from H333/H423. Therefore, (E)‐10 lacks stabilizing/activating contacts with the H333/H423 region rationalizing its antagonist properties.
Gal4-hybrid reporter gene assays. Reporter gene assays were performed in HEK293T cells (German Collection of Microorganisms and Cell Culture GmbH, DSMZ) as reported previously using Gal4 -NR LBD fusion receptor plasmids each coding for the hinge region and LBD of the canonical isoform of the respective human nuclear receptor.[7,8] pFR-Luc (Stratagene, La Jolla, CA, USA) served as a reporter plasmid and pRL-SV40 (Promega, Madison, WI, USA) was used for normalization of transfection efficiency and test compound toxicity. Cells were cultured in Dulbecco’s modified Eagle’s medium (DMEM), high glucose supplemented with 10% fetal calf serum (FCS), sodium pyruvate (1 mM), penicillin (100 U/mL), and streptomycin (100 μg/mL) at 37 °C and 5% CO2, and seeded in 96-well plates (3 × 10^4 cells/well). After 24 h, the medium was changed to Opti -MEM without supplements, and cells were transiently transfected using Lipofectamine LTX reagent (Invitrogen, Carlsbad, CA, USA) according to the manufacturer’s protocol. Five hours after transfection, cells were incubated with the test compounds […]

EC50 ((Z)‐state maintained with Cell‐Disco (370 nm), read-out: VDR modulation light-activated (Z): EC50): 170 nM
EC50 (dark‐adapted (E)‐state, read-out: VDR modulation dark (E): EC50): > 10000 nM
SMILES: CCCc1cc(C(O)(CC)CC)ccc1-c1ccc(/N=N/c2ccc3cc(C(=O)O)ccc3c2)cc1C [compound 10]
